Measured values from patent publication US20250302798A1, “STING INHIBITORS AND USE THEREOF” (CARMEL HAIFA UNIVERSITY ECONOMIC CORPORATION LTD., priority 2022, published 2025).
“Also recorded” adds a separate entry of the source.

Key:
[1] = tested on: STING-IFN-β axis; assay: Zymosan A peritonitis in vivo, macrophage cytokines and STING pathway Western blotting; design: species or system mice; details: 50 μM compound, 100 μl/mouse
Procedure: FIGS. 6A-6D include graphs and an image showing that compound 2.1 activates in vivo the STING-IFN-β axis and enhances biased cytokine production by macrophages. Mice were injected with zymosan A for 66 h. Twenty-four 24 post peritonitis initiation (PPI) the mice were injected with DMSO (0.4%), 4 mg/kg DMXAA or 50 μM compound 2.1 (100 μl/mouse). Macrophages were collected from the spleen (6A-6C), or peritoneum (6D) and incubated for 24 h with LPS (1 μg/ml) or vehicle (6A-6C) or lysed and analyzed by Western blotting immediately for the STING pathway (6D). Culture supernatants from incubated macrophages were analyzed by ELISA for the secretion of TNFα (6A), IL-10 (6B), and IL-6 (6C). Results are mean±SEM of 3 experiments (6A-6C) or representative blots. One-way ANOVA, and Tukey HSD test * P≤0.05, ** P≤0.01.

[2] = tested on: liver fibrosis; assay: CCl4 mouse liver fibrosis model, liver Western blot; format: in vivo, C57BL/6 mice; details: CCl4 mice, 50 μM compound
Procedure: FIGS. 7A-7E include an image and graphs showing that compound 2.1 facilitates anti-fibrotic responses during the resolution of liver fibrosis. Mice were injected I.P. with the fibrosis-inducing agent CCl4 twice a week. After 28 days the mice were injected with vehicle (DMSO 0.4%), or 50 μM compound 2.1 ([…]). After 2 additional days, livers were collected and analyzed by western blot (7A) for their expression of collagen 1 and the M2 marker arginase 1, as well as β-actin (loading control). Alternatively, livers were analyzed for their mRNA expression of the IFN-responsive genes Ifitml (7B) and Ifitm3 (7C), or the anti-fibrotic protein Rgs2 (7D). Liver interstitial fluids were evaluated for the anti-fibrotic cytokine IL-10 (7E) levels. Results are representative from 4 (A) or mean±SEM of 8 mice (7B-7E). One-way ANOVA, and Tukey HSD test ** P≤0.01, **** P≤0.0001.
FIGS. 9A-9E include an image of Western blot analysis and vertical bar graphs showing that compound 2.1 reduces production of fibrosis-related factors. (9A) Western blot analysis showing that treatment with compound 2.1 (c2.1) in a liver fibrosis model results in: reduced production of Collagen 1 (Col-1), and of Arginase 1, and increased production of IFN-β. (9B-9E) Vertical bar graphs showing densitometric analysis of (9A) for Col-1 (9B), Arginase-1 (9C), IFN-β (9D), and alpha smooth muscle actin (αSMA; 9E). (9B-9E) results are mean±SEM. One-way ANOVA, and Tukey HSD test * P≤0.05, ** P≤0.01.
Male C57BL/6 mice were randomly assigned to experimental groups at approximately eight weeks old. Mice were injected I.P. with CCl4 (1 ml/kg) three times a week for six weeks with 0.2 ml of a 10 percent CCl4 in corn oil. Forty-eight hours before sacrifice, the vehicle group was injected I.P. with CCL4, while the treatment group was injected with CCl4 and 50 μM of compound 2.1. Then the liver was collected in a RIPA buffer for Western blot analysis.
Protein extracts of liver tissue were separated by sodium dodecyl sulfate polyacrylamide gel electrophoresis (SDS-PAGE), transferred to PVDF membranes (Bio-Rad Laboratories, Inc.), blocked with 5% skimmed milk powder, and immunoblotted with antibodies targeting: IFN-β, arginase 1, collagen 1, or β-actin. Then, the membranes were washed, incubated with the appropriate horseradish peroxidase (HRP)-conjugated secondary antibody, and developed using WesternBright™ ECL (Advansta Inc). Band density was quantified with FIJI ImageJ software.

c1ccc(CSc2nnc(CCCCCCCCc3nnc(SCc4ccccc4)o3)o2)cc1 [Compound 2.1, 2-(benzylsulfanyl)-5-{8-[5-(benzylsulfanyl)-1,3,4-oxadiazol-2-yl]octyl}-1,3,4-oxadiazole]
STING-IFN-β axis in vivo ([1]; 24 h post peritonitis initiation, peritoneal macrophages): activates
Biased cytokine production by macrophages (TNFα, IL-10, IL-6) ([1]; spleen macrophages ex vivo ± LPS 1 μg/ml 24 h): enhances
Production of fibrosis-related factors [2]: reduces
Production of Arginase 1 in liver ([2]; Western blot): reduction; also recorded: reduced
Production of Collagen 1 in liver ([2]; Western blot): reduction; also recorded: reduced
Production of IFN-β in liver ([2]; Western blot): elevated production; also recorded: increased
Anti-fibrotic responses during the resolution of liver fibrosis ([2]; livers after 2 days): facilitates
